Measurements taken from ChEMBL document CHEMBL1201862, “PubChem BioAssay data set” (2004).
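The compound was tested at five concentrations on cells cultured in 96-well plates, with a 48-hour exposure period. Abbreviation: GI50, concentration required for 50% inhibition of growth.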 Active and inactive are the calls of the source. Cut-off read from the data, not from the text of the source: active = GI50 up to about 1.1 µM and inactive = higher.

Assays:
Assay in all cases: NCI anticancer screen, dose series, 48 h
786-0 = test system: 786-0
COLO 205 = test system: COLO 205
IGROV-1 = test system: IGROV-1
KM12 = test system: KM12
MOLT-4 = test system: MOLT-4
NCI-H522 = test system: NCI-H522
OVCAR-3 = test system: OVCAR-3
OVCAR-5 = test system: OVCAR-5
SF-295 = test system: SF-295
SK-MEL-2 = test system: SK-MEL-2
SNB-19 = test system: SNB-19
TK-10 = test system: TK-10
UO-31 = test system: UO-31
HCT-116 = test system: HCT-116
LOX IMVI = test system: LOX IMVI
NCI-H226 = test system: NCI-H226
SNB-75 = test system: SNB-75

Measured: GI50

COc1cc(/C=C(\NC(=O)c2ccccc2)c2nc3cncnc3[nH]2)cc(OC)c1OC
inactive: 786-0 > 100 µM | COLO 205 > 100 µM | IGROV-1 > 100 µM | KM12 > 100 µM | MOLT-4 > 100 µM | NCI-H522 > 100 µM | OVCAR-3 > 100 µM | OVCAR-5 > 100 µM | SF-295 > 100 µM | SK-MEL-2 > 100 µM | SNB-19 > 100 µM | TK-10 > 100 µM | UO-31 57.7 µM

O=C(N[C@@H]1C=CCC[C@@H]1c1ccccc1)OCc1ccccc1
inactive: 786-0 18.7 µM | COLO 205 18.5 µM | HCT-116 18.1 µM | IGROV-1 24.2 µM | KM12 17.5 µM | LOX IMVI 15.2 µM | MOLT-4 13.1 µM | NCI-H226 19 µM | NCI-H522 14.8 µM | OVCAR-3 16.8 µM | OVCAR-5 17.8 µM | SF-295 20.4 µM | SK-MEL-2 16.3 µM | SNB-19 32.7 µM | SNB-75 19.6 µM | TK-10 15.3 µM | UO-31 18.1 µM

Nc1nc(Cl)cc(NCCCCCCCCCCNc2cc(Cl)nc(N)n2)n1
active: HCT-116 0.196 µM | NCI-H522 0.415 µM | OVCAR-5 0.043 µM | SF-295 0.301 µM
inactive: 786-0 21.5 µM | COLO 205 24.9 µM | IGROV-1 22.2 µM | KM12 10.9 µM | LOX IMVI 1.56 µM | NCI-H226 1.99 µM | OVCAR-3 1.82 µM | SK-MEL-2 4.93 µM | SNB-19 75 µM | SNB-75 22.6 µM | TK-10 16.5 µM | UO-31 11.3 µM

CC(C)COC(=O)c1ccc(/N=C\c2ccc(/C=N/c3ccc(C(=O)OCC(C)C)cc3)cc2)cc1
inactive: 786-0 > 100 µM | COLO 205 > 100 µM | IGROV-1 > 100 µM | KM12 > 100 µM | LOX IMVI > 100 µM | MOLT-4 > 100 µM | NCI-H226 > 100 µM | NCI-H522 > 100 µM | OVCAR-3 > 100 µM | OVCAR-5 > 100 µM | SF-295 > 100 µM | SK-MEL-2 > 100 µM | SNB-19 > 100 µM | SNB-75 > 100 µM | TK-10 > 100 µM | UO-31 23.9 µM

C#CCN(Cc1ccc2nc(-c3ccccc3)c(Cl)nc2c1)c1cc(OC)c(OC)c(OC)c1
inactive: 786-0 > 100 µM | COLO 205 57.1 µM | HCT-116 40.5 µM | IGROV-1 > 100 µM | KM12 > 100 µM | LOX IMVI 14.8 µM | MOLT-4 83.6 µM | NCI-H226 > 100 µM | NCI-H522 > 100 µM | OVCAR-3 > 100 µM | OVCAR-5 > 100 µM | SF-295 > 100 µM | SK-MEL-2 > 100 µM | SNB-19 > 100 µM | SNB-75 > 100 µM | TK-10 > 100 µM | UO-31 > 100 µM

CCOc1ccc(-c2oc(/C=N/NS(=O)(=O)c3ccc(C)cc3)c([N+](=O)[O-])c2-c2ccc(OCC)cc2)cc1
inactive: 786-0 12.4 µM | COLO 205 17.5 µM | HCT-116 2.03 µM | IGROV-1 14.1 µM | KM12 8.81 µM | LOX IMVI 3.46 µM | MOLT-4 2.65 µM | NCI-H226 14.4 µM | NCI-H522 5.96 µM | OVCAR-3 15.6 µM | OVCAR-5 11.5 µM | SF-295 14.4 µM | SK-MEL-2 19.9 µM | SNB-19 15 µM | SNB-75 4.19 µM | TK-10 22 µM | UO-31 12.7 µM

C[C@@]1(Cc2ccccc2)C(=O)N2[C@@H](CO)C(c3ccccc3)O[C@]2(C)c2ccccc21 (stereo not given in full)
inactive: 786-0 52.7 µM | COLO 205 > 100 µM | HCT-116 > 100 µM | IGROV-1 > 100 µM | KM12 > 100 µM | LOX IMVI > 100 µM | MOLT-4 32.3 µM | NCI-H226 > 100 µM | NCI-H522 81.1 µM | OVCAR-3 > 100 µM | OVCAR-5 > 100 µM | SF-295 72.4 µM | SK-MEL-2 > 100 µM | SNB-19 > 100 µM | SNB-75 32 µM | TK-10 > 100 µM | UO-31 > 100 µM

O=C1Cc2ccccc2N1/N=C\c1ccc(O)cc1
inactive: 786-0 > 100 µM | COLO 205 > 100 µM | HCT-116 > 100 µM | IGROV-1 > 100 µM | KM12 > 100 µM | LOX IMVI > 100 µM | MOLT-4 13.4 µM | NCI-H226 > 100 µM | OVCAR-3 > 100 µM | OVCAR-5 > 100 µM | SF-295 77.4 µM | SK-MEL-2 > 100 µM | SNB-19 > 100 µM | SNB-75 18.1 µM | TK-10 > 100 µM | UO-31 45.1 µM

CN(C)CC(/C(Cc1ccccc1)=N\NC(=O)c1ccncc1)c1ccccc1 (stereo not given)
inactive: 786-0 30 µM | COLO 205 30.8 µM | IGROV-1 47.6 µM | LOX IMVI 30.2 µM | NCI-H226 71.6 µM | NCI-H522 27.4 µM | OVCAR-3 20.1 µM | OVCAR-5 83.8 µM | SF-295 17.4 µM | SK-MEL-2 18.9 µM | SNB-19 39 µM | SNB-75 36.1 µM | TK-10 34.2 µM

COc1c(Br)cc(Br)c(OC)c1-c1[nH]c(Br)c(Br)c1Br
inactive: 786-0 10.7 µM | COLO 205 10.4 µM | HCT-116 3.25 µM | IGROV-1 5.71 µM | KM12 4.48 µM | LOX IMVI 11.7 µM | MOLT-4 4.53 µM | NCI-H226 5.7 µM | NCI-H522 2.18 µM | OVCAR-3 3.66 µM | OVCAR-5 14.3 µM | SF-295 4.63 µM | SK-MEL-2 3.01 µM | SNB-19 13.1 µM | SNB-75 4.45 µM | TK-10 11.4 µM | UO-31 2.13 µM

NCCNC(=O)c1cccc2cc3ccccc3nc12
active: COLO 205 1.07 µM | HCT-116 1.11 µM | MOLT-4 0.333 µM
inactive: 786-0 7.6 µM | IGROV-1 3.48 µM | KM12 4.03 µM | LOX IMVI 1.24 µM | NCI-H226 1.43 µM | NCI-H522 3.57 µM | OVCAR-3 3.66 µM | OVCAR-5 3.74 µM | SF-295 2.94 µM | SK-MEL-2 2.47 µM | SNB-19 4.09 µM | SNB-75 5.26 µM | TK-10 2.3 µM | UO-31 5.26 µM

Cc1c(C(=O)/C=C/c2cccc3ccccc23)[n+]([O-])c2ccccc2[n+]1[O-]
inactive: 786-0 12.6 µM | COLO 205 13.9 µM | HCT-116 6.12 µM | IGROV-1 12.9 µM | KM12 14 µM | LOX IMVI 7.93 µM | MOLT-4 11.5 µM | NCI-H226 14 µM | NCI-H522 5.9 µM | OVCAR-3 10.7 µM | OVCAR-5 15.2 µM | SF-295 16.1 µM | SNB-19 15.7 µM | SNB-75 13 µM | TK-10 20.3 µM | UO-31 17.3 µM

COC(=O)C(C)Oc1ccc(O)cc1 (stereo not given)
inactive: 786-0 > 100 µM | COLO 205 > 100 µM | HCT-116 20.9 µM | IGROV-1 > 100 µM | KM12 > 100 µM | NCI-H226 > 100 µM | NCI-H522 > 100 µM | OVCAR-3 > 100 µM | OVCAR-5 > 100 µM | SF-295 > 100 µM | SNB-19 > 100 µM | SNB-75 > 100 µM | TK-10 > 100 µM | UO-31 > 100 µM

COc1ccc(OC)c(N2CC(N)C2=O)c1 (stereo not given)
inactive: 786-0 > 100 µM | COLO 205 > 100 µM | HCT-116 > 100 µM | IGROV-1 > 100 µM | KM12 > 100 µM | LOX IMVI > 100 µM | MOLT-4 > 100 µM | NCI-H226 > 100 µM | NCI-H522 > 100 µM | OVCAR-3 > 100 µM | SF-295 > 100 µM | SK-MEL-2 > 100 µM | SNB-19 > 100 µM | SNB-75 86.7 µM | TK-10 > 100 µM | UO-31 > 100 µM

Cc1ccc2nc(NC(=O)C(=O)C(C#N)c3ccc(Cl)cc3)sc2c1 (stereo not given)
inactive: 786-0 > 50 µM | COLO 205 > 50 µM | HCT-116 > 50 µM | IGROV-1 > 50 µM | KM12 > 50 µM | LOX IMVI > 50 µM | NCI-H226 > 50 µM | OVCAR-3 > 50 µM | OVCAR-5 > 50 µM | SF-295 > 50 µM | SK-MEL-2 > 50 µM | SNB-19 > 50 µM | SNB-75 > 50 µM | TK-10 > 50 µM | UO-31 > 50 µM

C/C(=N\NS(=O)(=O)c1ccc(C)cc1)c1ccc[n+]([O-])n1
inactive: 786-0 > 100 µM | HCT-116 > 100 µM | IGROV-1 > 100 µM | KM12 > 100 µM | MOLT-4 56.9 µM | NCI-H522 36.9 µM | OVCAR-3 39.5 µM | OVCAR-5 > 100 µM | SF-295 > 100 µM | SNB-19 > 100 µM | SNB-75 37.9 µM | UO-31 > 100 µM

N#Cc1cccnc1Cl
inactive: 786-0 > 100 µM | COLO 205 > 100 µM | IGROV-1 > 100 µM | KM12 > 100 µM | LOX IMVI > 100 µM | MOLT-4 > 100 µM | NCI-H226 > 100 µM | NCI-H522 > 100 µM | OVCAR-3 > 100 µM | OVCAR-5 > 100 µM | SF-295 > 100 µM | SK-MEL-2 > 100 µM | SNB-19 > 100 µM | SNB-75 > 76.6 µM | TK-10 > 100 µM | UO-31 > 100 µM

O=C1C2c3[nH]c4ccccc4c3C3CCCC3C2C(=O)N1c1ccccc1 (stereo not given)
inactive: 786-0 > 100 µM | COLO 205 > 100 µM | IGROV-1 > 100 µM | KM12 > 100 µM | LOX IMVI > 100 µM | MOLT-4 > 100 µM | OVCAR-3 > 100 µM | SF-295 > 100 µM | SNB-75 40.6 µM | TK-10 > 100 µM
